The values below come from patent US8637528B2, “Use of PDE7 inhibitors for the treatment of movement disorders” (Omeros Corporation, priority 2007, dated 2014).

The assay deals with Adenosine A2A receptor (Homo sapiens (Human), UniProt P29274). Put plainly: Adenosine A2A receptor radioligand binding assay. The procedure: An Adenosine A2A receptor radioligand binding assay was carried out as described in Varani, K., et al., Br. J. Pharmacol. 117:1693-1701, 1996, with the following modifications. Human recombinant A2A receptor was expressed in HEK-293 cells. The ligand used in the assay was 0.05 μM [^3H]CGS-21680. The non-specific ligand was 50 μM NECA. The vehicle control was 1% DMSO. Compound OM69 was tested at 10 μM in incubation buffer (50 mM Tris-HCL, pH 7.4, 10 mM MgCl2, 1 mM EDTA, 2 U/mL Adenosine Deaminase). The reaction was incubated for 90 minutes at 25° C. Radioligand binding was quantitated. […]
Adenosine A2A receptor, sequence (P29274 whole entry): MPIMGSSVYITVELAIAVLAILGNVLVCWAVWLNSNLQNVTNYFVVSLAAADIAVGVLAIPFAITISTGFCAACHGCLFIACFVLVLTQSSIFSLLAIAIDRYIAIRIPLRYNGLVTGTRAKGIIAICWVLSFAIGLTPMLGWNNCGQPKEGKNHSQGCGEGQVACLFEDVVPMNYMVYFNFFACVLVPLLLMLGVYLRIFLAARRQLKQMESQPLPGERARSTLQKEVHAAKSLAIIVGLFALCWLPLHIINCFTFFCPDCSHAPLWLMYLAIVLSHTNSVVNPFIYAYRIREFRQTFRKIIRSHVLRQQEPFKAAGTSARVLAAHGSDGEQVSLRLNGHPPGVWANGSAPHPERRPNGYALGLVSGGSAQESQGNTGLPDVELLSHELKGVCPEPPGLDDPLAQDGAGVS

`COc1cc(N)ccc1-c1cc2c(c(=O)[nH]1)C(C1CCCCC1)N=[N+]2C` (centres unmarked) [OM69]: the “percent inhibition of ligand binding to Adenosine A2A Receptor” value (10.0 μM) is on record as 41%. Moreover, under “brain level 8.5 to 17 nM (dose 0.1 mg/kg), using IC50 of 10 μM”, the “percent occupation of A2A receptors” value is “about 0.17%”.
